Measured values as given in US12281149B2, “Modulators of G-protein coupled receptors” (priority 2021, dated 2025).
Read-outs that look alike come from different tables or passages of the source. *1 amine or outer side, *2 acyl side, *3 side chain or, on linkers, in order; H or OH if unused. Where a SMILES comes first, the peptide text is derived from it. Side-chain parts run from the residue outwards. [ ]: non-standard residue; d: D form. The star is where a group is joined. C20 diacid = O=C(O)CCCCCCCCCCCCCCCCCCC(=O)*; NH(4-OCF3-phenyl) = FC(F)(F)Oc1ccc(N*)cc1; γGlu = O=C(O)[C@H](CCC(=O)[*:2])N[*:1]; NH(3-Cl-phenyl) = Clc1cccc(N*)c1; NH(4-Cl-phenyl) = Clc1ccc(N*)cc1; NH(4-Me-phenyl) = Cc1ccc(N*)cc1; AEEA = NCCOCCOCC(=O)O; Aib = CC(C)(N)C(=O)O; CO = O=C([*:1])[*:2]; GABA = NCCCC(=O)O; βAla = NCCC(=O)O

How the values were obtained:
Format in all cases: cell-based
GLP-1 receptor [1] = target: T1, GLP-1 receptor (Homo sapiens, UniProt P43220); test: PathHunter β-arrestin assay, GLP-1 receptor; parameters: host or cells: PathHunter CHO-K1 GLP1R β-Arrestin Cell Line
GLP-1 receptor [2] = target: T1, GLP-1 receptor; test: HitHunter cAMP assay, GLP-1 receptor; conditions: for Emax: read-out: Emax GLP-1R
GIP receptor [3] = target: T2, GIP receptor (Homo sapiens, UniProt P48546); test: PathHunter β-arrestin assay, GIP receptor; parameters: host or cells: PathHunter CHO-K1 GIPR β-Arrestin Cell Line
T2 sequence (P48546 22-466): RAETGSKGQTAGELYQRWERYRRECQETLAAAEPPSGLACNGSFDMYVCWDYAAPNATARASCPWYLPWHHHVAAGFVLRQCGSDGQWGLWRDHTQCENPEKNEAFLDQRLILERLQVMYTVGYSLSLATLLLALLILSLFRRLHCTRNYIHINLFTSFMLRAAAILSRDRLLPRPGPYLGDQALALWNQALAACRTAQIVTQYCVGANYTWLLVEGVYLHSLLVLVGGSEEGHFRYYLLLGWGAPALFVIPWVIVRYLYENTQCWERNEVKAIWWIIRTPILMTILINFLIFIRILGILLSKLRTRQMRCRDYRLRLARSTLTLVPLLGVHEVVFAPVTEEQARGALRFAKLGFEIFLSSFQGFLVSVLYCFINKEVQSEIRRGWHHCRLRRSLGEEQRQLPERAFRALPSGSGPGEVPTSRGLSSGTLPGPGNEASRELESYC

GIP receptor [4] = target: T2, GIP receptor; test: HitHunter cAMP assay, GIP receptor; conditions: for Emax: read-out: Emax GIP-1R

T1 sequence (P43220 24-463): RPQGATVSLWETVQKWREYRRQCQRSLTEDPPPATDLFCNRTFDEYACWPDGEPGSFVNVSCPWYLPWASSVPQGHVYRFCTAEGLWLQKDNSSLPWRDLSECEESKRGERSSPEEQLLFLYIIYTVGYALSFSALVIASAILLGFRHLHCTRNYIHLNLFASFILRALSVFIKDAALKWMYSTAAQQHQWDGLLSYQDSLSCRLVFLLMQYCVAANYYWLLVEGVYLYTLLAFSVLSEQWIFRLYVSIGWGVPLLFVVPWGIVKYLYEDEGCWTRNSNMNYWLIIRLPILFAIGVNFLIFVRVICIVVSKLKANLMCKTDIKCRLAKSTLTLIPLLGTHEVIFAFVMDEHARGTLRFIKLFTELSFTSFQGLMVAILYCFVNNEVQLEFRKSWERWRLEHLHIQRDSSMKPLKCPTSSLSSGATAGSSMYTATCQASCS

Row | SMILES | EC50 (GLP-1 receptor [1]; β-arrestin-2 recruitment, PathHunter CHO-K1 GLP1R β-Arrestin Cell Line, 90 min at 37° C., normalized to GLP-1, read-out: GLP-1R β Arrestin EC50) [nM] | EC50 (GLP-1 receptor [2]; CHO cells stably expressing human GLP-1 receptor, cAMP accumulation, 30 min, read-out: EC50 GLP-1R) [nM] | Emax (GLP-1 receptor [2]; CHO cells, cAMP, normalized to maximum signal from GLP-1 (high) and DMSO (low)) [%] | EC50 (GIP receptor [3]; β-arrestin-2 recruitment, PathHunter CHO-K1 GIPR β-Arrestin Cell Line, 90 min at 37° C., normalized to GIP, read-out: GIPR β Arrestin EC50) [nM] | EC50 (GIP receptor [4]; CHO cells stably expressing GIP receptor, cAMP accumulation, 30 min, read-out: EC50 GIP-1R) [nM] | Emax (GIP receptor [4]; CHO cells, cAMP, normalized to maximum signal from GIP (high) and DMSO (low)) [%] | EC50 (GLP-1 receptor [1]) [nM] | EC50 (GLP-1 receptor [2]) [nM] | Emax (GLP-1 receptor [2]; CHO) [%] | EC50 (GIP receptor [3]) [nM] | EC50 (GIP receptor [4]) [nM] | Emax (GIP receptor [4]; CHO) [%]
1 | CC[C@H](C)[C@H](NC(=O)[C@H](CC(C)C)NC(=O)[C@H](Cc1c[nH]c2ccccc12)NC(=O)[C@H](CCC(N)=O)NC(=O)[C@@H](NC(=O)[C@H](Cc1ccccc1)NC(=O)[C@H](C)NC(=O)[C@H](CCCCNC(=O)COCCOCCNC(=O)COCCOCCNC(=O)CC[C@H](NC(=O)CCCCCCCCCCCCCCCCCCC(=O)O)C(=O)O)NC(=O)[C@H](CCC(N)=O)NC(=O)[C@H](C)NC(=O)[C@@H](NC(=O)[C@H](CCCCN)NC(=O)[C@H](CC(=O)O)NC(=O)[C@H](CC(C)C)NC(=O)C(C)(C)NC(=O)[C@@H](NC(=O)[C@H](CO)NC(=O)[C@H](Cc1ccc(O)cc1)NC(=O)[C@H](CC(=O)O)NC(=O)[C@H](CO)NC(=O)[C@@H](NC(=O)[C@H](Cc1ccccc1)NC(=O)[C@@H](NC(=O)CNC(=O)[C@H](CCC(=O)O)NC(=O)CCCNC(=O)CNC(=O)Nc1ccc(OC(F)(F)F)cc1)[C@@H](C)O)[C@@H](C)O)[C@@H](C)CC)[C@@H](C)CC)C(C)C)C(=O)N[C@@H](C)C(=O)NCC(=O)NCC(=O)N1CCC[C@H]1C(=O)N[C@@H](CO)C(=O)N[C@@H](CO)C(=O)NCC(=O)N[C@@H](C)C(=O)N1CCC[C@H]1C(=O)N1CCC[C@H]1C(=O)N1CCC[C@H]1C(=O)N[C@@H](CO)C(N)=O [Compound 269] ({NH(4-OCF3-phenyl)-CO}-G[GABA]EGTFTSDYSI[Aib]LDKIAQK([AEEA-AEEA-γGlu-C20 diacid])AFVQWLIAGGPSSGAPPPS-NH2) | > 1000 | 1 to 10 | 96 | < 1000 | 1 to 10 | 103 |  |  |  |  |  | 
2 | CC[C@H](C)[C@H](NC(=O)[C@H](CC(C)C)NC(=O)[C@H](Cc1c[nH]c2ccccc12)NC(=O)[C@H](CCC(N)=O)NC(=O)[C@@H](NC(=O)[C@H](Cc1ccccc1)NC(=O)[C@H](C)NC(=O)[C@H](CCCCNC(=O)COCCOCCNC(=O)COCCOCCNC(=O)CC[C@H](NC(=O)CCCCCCCCCCCCCCCCCCC(=O)O)C(=O)O)NC(=O)[C@H](CCC(N)=O)NC(=O)[C@H](C)NC(=O)[C@@H](NC(=O)[C@H](CCCCN)NC(=O)[C@H](CC(=O)O)NC(=O)[C@H](CC(C)C)NC(=O)C(C)(C)NC(=O)[C@@H](NC(=O)[C@H](CO)NC(=O)[C@H](Cc1ccc(O)cc1)NC(=O)[C@H](CC(=O)O)NC(=O)[C@H](CO)NC(=O)[C@@H](NC(=O)[C@H](Cc1ccccc1)NC(=O)[C@@H](NC(=O)CNC(=O)[C@H](CCC(=O)O)NC(=O)CCCNC(=O)CNC(=O)Nc1ccc(Cl)cc1)[C@@H](C)O)[C@@H](C)O)[C@@H](C)CC)[C@@H](C)CC)C(C)C)C(=O)N[C@@H](C)C(=O)NCC(=O)NCC(=O)N1CCC[C@H]1C(=O)N[C@@H](CO)C(=O)N[C@@H](CO)C(=O)NCC(=O)N[C@@H](C)C(=O)N1CCC[C@H]1C(=O)N1CCC[C@H]1C(=O)N1CCC[C@H]1C(=O)N[C@@H](CO)C(N)=O [Compound 270] ({NH(4-Cl-phenyl)-CO}-G[GABA]EGTFTSDYSI[Aib]LDKIAQK([AEEA-AEEA-γGlu-C20 diacid])AFVQWLIAGGPSSGAPPPS-NH2) |  |  |  |  |  |  | > 1000 | 10 to 100 | 91 | < 1000 | 1 to 10 | 104
3 | CC[C@H](C)[C@H](NC(=O)[C@H](CC(C)C)NC(=O)[C@H](Cc1c[nH]c2ccccc12)NC(=O)[C@H](CCC(N)=O)NC(=O)[C@@H](NC(=O)[C@H](Cc1ccccc1)NC(=O)[C@H](C)NC(=O)[C@H](CCCCNC(=O)COCCOCCNC(=O)COCCOCCNC(=O)CC[C@H](NC(=O)CCCCCCCCCCCCCCCCCCC(=O)O)C(=O)O)NC(=O)[C@H](CCC(N)=O)NC(=O)[C@H](C)NC(=O)[C@@H](NC(=O)[C@H](CCCCN)NC(=O)[C@H](CC(=O)O)NC(=O)[C@H](CC(C)C)NC(=O)C(C)(C)NC(=O)[C@@H](NC(=O)[C@H](CO)NC(=O)[C@H](Cc1ccc(O)cc1)NC(=O)[C@H](CC(=O)O)NC(=O)[C@H](CO)NC(=O)[C@@H](NC(=O)[C@H](Cc1ccccc1)NC(=O)[C@@H](NC(=O)CNC(=O)[C@H](CCC(=O)O)NC(=O)CCCNC(=O)CNC(=O)Nc1ccc(C)cc1)[C@@H](C)O)[C@@H](C)O)[C@@H](C)CC)[C@@H](C)CC)C(C)C)C(=O)N[C@@H](C)C(=O)NCC(=O)NCC(=O)N1CCC[C@H]1C(=O)N[C@@H](CO)C(=O)N[C@@H](CO)C(=O)NCC(=O)N[C@@H](C)C(=O)N1CCC[C@H]1C(=O)N1CCC[C@H]1C(=O)N1CCC[C@H]1C(=O)N[C@@H](CO)C(N)=O [Compound 271] ({NH(4-Me-phenyl)-CO}-G[GABA]EGTFTSDYSI[Aib]LDKIAQK([AEEA-AEEA-γGlu-C20 diacid])AFVQWLIAGGPSSGAPPPS-NH2) |  |  |  |  |  |  | > 1000 | 1 to 10 | 94 | < 1000 | 1 to 10 | 105
4 | CC[C@H](C)[C@H](NC(=O)[C@H](CC(C)C)NC(=O)[C@H](Cc1c[nH]c2ccccc12)NC(=O)[C@H](CCC(N)=O)NC(=O)[C@@H](NC(=O)[C@H](Cc1ccccc1)NC(=O)[C@H](C)NC(=O)[C@H](CCCCNC(=O)COCCOCCNC(=O)COCCOCCNC(=O)CC[C@H](NC(=O)CCCCCCCCCCCCCCCCCCC(=O)O)C(=O)O)NC(=O)[C@H](CCC(N)=O)NC(=O)[C@H](C)NC(=O)[C@@H](NC(=O)[C@H](CCCCN)NC(=O)[C@H](CC(=O)O)NC(=O)[C@H](CC(C)C)NC(=O)C(C)(C)NC(=O)[C@@H](NC(=O)[C@H](CO)NC(=O)[C@H](Cc1ccc(O)cc1)NC(=O)[C@H](CC(=O)O)NC(=O)[C@H](CO)NC(=O)[C@@H](NC(=O)[C@H](Cc1ccccc1)NC(=O)[C@@H](NC(=O)CNC(=O)[C@H](CCC(=O)O)NC(=O)CCNC(=O)[C@H](C)NC(=O)Nc1ccc(C)cc1)[C@@H](C)O)[C@@H](C)O)[C@@H](C)CC)[C@@H](C)CC)C(C)C)C(=O)N[C@@H](C)C(=O)NCC(=O)NCC(=O)N1CCC[C@H]1C(=O)N[C@@H](CO)C(=O)N[C@@H](CO)C(=O)NCC(=O)N[C@@H](C)C(=O)N1CCC[C@H]1C(=O)N1CCC[C@H]1C(=O)N1CCC[C@H]1C(=O)N[C@@H](CO)C(N)=O [Compound 272] ({NH(4-Me-phenyl)-CO}-A[βAla]EGTFTSDYSI[Aib]LDKIAQK([AEEA-AEEA-γGlu-C20 diacid])AFVQWLIAGGPSSGAPPPS-NH2) |  |  |  |  |  |  | > 1000 | 10 to 100 | 75 | > 1000 | 10 to 100 | 91
5 | CC[C@H](C)[C@H](NC(=O)[C@H](CC(C)C)NC(=O)[C@H](Cc1c[nH]c2ccccc12)NC(=O)[C@H](CCC(N)=O)NC(=O)[C@@H](NC(=O)[C@H](Cc1ccccc1)NC(=O)[C@H](C)NC(=O)[C@H](CCCCNC(=O)COCCOCCNC(=O)COCCOCCNC(=O)CC[C@H](NC(=O)CCCCCCCCCCCCCCCCCCC(=O)O)C(=O)O)NC(=O)[C@H](CCC(N)=O)NC(=O)[C@H](C)NC(=O)[C@@H](NC(=O)[C@H](CCCCN)NC(=O)[C@H](CC(=O)O)NC(=O)[C@H](CC(C)C)NC(=O)C(C)(C)NC(=O)[C@@H](NC(=O)[C@H](CO)NC(=O)[C@H](Cc1ccc(O)cc1)NC(=O)[C@H](CC(=O)O)NC(=O)[C@H](CO)NC(=O)[C@@H](NC(=O)[C@H](Cc1ccccc1)NC(=O)[C@@H](NC(=O)CNC(=O)[C@H](CCC(=O)O)NC(=O)CCCNC(=O)CNC(=O)Nc1cccc(Cl)c1)[C@@H](C)O)[C@@H](C)O)[C@@H](C)CC)[C@@H](C)CC)C(C)C)C(=O)N[C@@H](C)C(=O)NCC(=O)NCC(=O)N1CCC[C@H]1C(=O)N[C@@H](CO)C(=O)N[C@@H](CO)C(=O)NCC(=O)N[C@@H](C)C(=O)N1CCC[C@H]1C(=O)N1CCC[C@H]1C(=O)N1CCC[C@H]1C(=O)N[C@@H](CO)C(N)=O [Compound 273] ({NH(3-Cl-phenyl)-CO}-G[GABA]EGTFTSDYSI[Aib]LDKIAQK([AEEA-AEEA-γGlu-C20 diacid])AFVQWLIAGGPSSGAPPPS-NH2) |  |  |  |  |  |  | > 1000 | 1 to 10 | 106 | > 1000 | 1 to 10 | 99
